Test results taken from US20240368191A1, “HETEROCYCLIC COMPOUNDS AND USES THEREOF” (Kumquat Biosciences Inc., priority 2021, published 2024).

Columns and labels:
[1] = target: T1, KRAS G12D 1-169 (His-tagged, GDP-loaded) (Homo sapiens, UniProt P01116, G12D); test: Covalent modification of KRAS protein by intact-protein LC-MS; type: binding; conditions: comparable or same conditions as K-Ras G12S
T1 construct: His -tagged GDP-loaded G12D 1-169; made in house; host or cells: E. coli, e.g. BL21 (DE3)
How it was run: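 Percent modification is derived from deconvoluted intact-protein LC-ESI-MS peak intensities of adducted versus unmodified KRAS. GDP-loaded His-tagged KRAS 1-169 (~2 μM, HEPES buffer at physiological conditions) was exposed to compound for 24 hrs at room temperature, then quenched with formic acid before C4 reversed-phase separation.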

A549 cells = test: Cell proliferation assay (CellTiter-Glo), K-Ras G12S cells; type: cell-based; conditions: A549 cells; Comparative Compound A lacking the warhead vs Compound B
Procedure: A549 (ATCC CRL-185) and LS123 (ATCC CRL-255) cell lines comprise a G12S mutation and can be used to assess Ras cellular signaling in vitro, e.g., in response to the compounds herein. A549 culture medium is prepared with RPMI-1640 and 10% heat-inactivated FBS. LS123 culture medium is prepared with RPMI-1640 and 10% heat-inactivated FBS. A CellTiter-Glo (CTG) luminescent based assay (Promega) is used to assess growth of the cells, as a measurement of the ability of the compounds herein to inhibit Ras signaling in the cells. The cells (e.g., 800 per well) are seeded in their respective culture medium in standard tissue culture-treated 384-well format plates (Falcon #08-772-116) or ultra-low attachment surface 384-well format plates (S-Bio #MS-9384WZ). The day after plating, cells are treated with a dilution series (e.g., a 10 point 3-fold dilution series) of the compounds herein (e.g., approximately 40 μl final volume per well). Cell viability can be monitored (e.g., approximately 6 days later) according to the manufacturer's recommended instructions, where the CellTiter-Glo reagent is added (e.g., approximately 10 μl), vigorously mixed, covered, and placed on a plate shaker (e.g., approximately for 20 min) to ensure sufficient cell lysis prior to assessment of luminescent signal. The IC50 values are determined using the four parameter fit. The resulting IC50 value is a measurement of the ability of the compounds herein to reduce cell growth of Ras-driven cells (e.g., tumor cell lines) in vitro and/or in vivo.

[2] = Metabolic (microsomal) stability assay; conditions: pooled liver microsomes, pH 7.4

T1 sequence (P01116 1-169 isoform P01116-2 G12D): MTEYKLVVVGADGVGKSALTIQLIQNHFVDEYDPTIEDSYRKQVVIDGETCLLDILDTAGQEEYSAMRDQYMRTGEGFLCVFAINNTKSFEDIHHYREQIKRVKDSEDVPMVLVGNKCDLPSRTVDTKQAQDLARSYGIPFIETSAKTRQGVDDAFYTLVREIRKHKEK

Compound	covalent labeling of K-Ras G12D [1]	Compound IC50 Ratio IC50 (Cpd A):IC50 (Cpd B) (A549 cells)	half-life at 0.5 μM [2]
CN1CCC[C@H]1COc1nc(N2CCOC3(CN(C(=O)n4cncn4)C3)C2)c2cc(Cl)c(-c3ccc(F)c4sc(N)c(C#N)c34)c(F)c2n1 [Compound A137, 4-(4-(2-(1H-1,2,4-triazole-1-carbonyl)-5-oxa-2,8-diaza-spiro[3.5]nonan-8-yl)-6-chloro-8-fluoro-2-(((S)-1-methylpyr-rolidin-2-yl)methoxy)quinaz-olin-7-yl)-2-amino-7-fluoro-benzo[b]thiophene-3-carbonitrile]	essentially no detectable labeling	>4 (A549 cells)	–
N#CCc1ncn(C(=O)N2CC3(C2)CN(c2nc(OC[C@@]45CCCN4C[C@H](F)C5)nc4c(F)c(-c5ccc(F)c6sc(N)c(C#N)c56)c(Cl)cc24)CCO3)n1 [Compound A110, 2-amino-4-(6-chloro-4-(2-(3-(cyanomethyl)-1H-1,2,4-triazole-1-carbonyl)-5-oxa-2,8-diazaspiro[3.5]nonan-8-yl)-8-fluoro-2-(((2R,7aS)-2-fluoro-tetrahydro-1H-pyrrolizin-7a(5H)-yl)methoxy)quinazolin-7-yl)-7-fluorobenzo[b]thio-phene-3-carbonitrile]	essentially no detectable labeling	>4 (A549 cells)	> 10 min
